Columns and labels:
[1] = system: pERK in mutant BRAF WM266.4 cells; test: Assay B - cell based phospho-ERK assay; details: Homo sapiens, WM 266-4, 6 hours incubation
Method: (§1) Values for the blank (Empty Vector) are subtracted from all values. The DMSO controls are set as 100% activity and assay points (the response) are calculated as a percentage of the DMSO control. Data are plotted using Graphpad Prism software and a non-linear regression line is calculated using a variable slope sigmoidal dose-response equation: Y=Bottom+[Top−Bottom]/[1+10^((Log EC50−X)*HillSlope)] where X is the logarithm of concentration and Y is the response. The IC50 generated by this procedure is the concentration of the drug that produces a percentage control fluorescence value midway between the saturation, and zero-effect plateaus. Three independent assays are usually performed and the mean IC50 is reported. Biological Methods—Assay B—Cell Based Phosho-ERK Assay
Compounds were assessed using a cell-based assay which was performed according to the following protocol.
Plate out 16,000 mutant BRAF WM266.4 cells/well in 99 μL medium in a 96-well plate.
1. Add 1 μL inhibitor (test compound) to the cells (total […]).
2. Incubate the cells with test compound for 6 hours at 37° C.
3. Aspirate off the solution from all of the wells.
4. Fixate the cells with 100 μL 4% formaldehyde/0.25% Triton X-100 PBS per well.
5. Incubate the plate for 1 hour at 4° C.
6. Aspirate off the fixing solution and add 300 μL TBS per well.
7. Leave the plate overnight at 4° C.
1. Wash the plate 2× with 200 μL PBS per well.
2. Block with 100 μL 5% dried milk in TBS.
3. Incubate the plate for 20 minutes at 37° C.
4. Wash the plate 2× with 0.1% tween/H2O.
5. Add 50 μL of 3 μg/mL primary antibody pERK (Sigma M8159), diluted in 5% milk powder/TBS, to each well.
6. Incubate the plate for 2 hours at 37° C.
7. Wash the plate 3× with 0.1% tween/H2O.
8. Add 50 μL of 0.45 μg/mL secondary Europium-labelled anti-mouse antibody (Perkin Elmer) to each well.
9. Incubate the plate for 1 hour at 37° C.
10. Wash the plate 3× with 0.1% tween/H2O.
11. Add 100 μL enhancement solution (Perkin Elmer) to each well.
12. Leave the plate for approximately 10 minutes at room temperature before gently shaking the plate.
13. Read Europium Time Resolved Fluorescence in Victor2.
14. Wash the plate 2× with 0.1% tween/H2O.
15. Measure the protein concentration with BCA (Sigma) by adding 200 μL of solution per well.
16. Incubate the plate for 30 minutes at 37° C.
17. Read absorbance levels at 570 nm in a plate reader.
Note that Europium counts are normalised for protein levels by dividing counts by absorbance.
as §1, with “blank (no cells)” for “blank (Empty Vector)”, “the response).” for “the response.”, “Methods—Assay C—SRB Cell Proliferation” for “Methods—Assay B—Cell Based Phosho-ERK”, “Assay (SRB GI50)” for “Assay”

[2] = system: A375M human melanoma cells (mutant BRAF) xenograft; test: Xenograft study, mutant BRAF A375; format: in vivo, mice; details: for Factor of tumour volume reduction as compared to the control: over the timescale of the study
Method: Biological Methods—Xenograft Studies
SW620 human colorectal carcinoma cells (mutant RAS, 7×10^7) or A375M human melanoma cells (mutant BRAF, 10^7) were inoculated sub-cutaneously in suspension (0.2 mL) into the right flank of female Crl:CD1-Foxn1nu athymic mice. Groups were assigned to treatment following stratified allocation of tumour volumes. Treatment with test compound began between days 11-14 post-cell administration. For gavage, a suspension (DMSO:water, 1:19, v/v at 10 m L/kg) was administered. Control animals received a similar dosage of vehicle (DMSO:water, 1:19, v/v). Treatment with test compound was continued once daily for 24 doses.

Row | SMILES | IC50 [1] [µM] | Factor of tumour volume reduction as compared to the control [2] | Effect on tumour volume as compared to the control (in words) [2]
1 | Cn1c(=O)[nH]c2nccc(Oc3ccc(NC(=O)Nc4cc(C(C)(C)C)nn4-c4ccccc4)c(F)c3)c21 [AA-01, 1-(3-Tert-butyl-1-phenyl-1H-pyrazol-5-yl)-3-(2-fluoro-4-(1-N-methyl-2-oxo-2,3-dihydro-1H-imidazo[4,5-b]pyridin-7-yloxy)phenyl)urea] | 0.26 | about 2.5 | –
2 | Cn1c(=O)[nH]c2nccc(Oc3ccc(NC(=O)Nc4cc(C(C)(C)C)nn4-c4ccccc4)c4ccccc34)c21 [BB-01, 1-(3-Tert-butyl-1-phenyl-1H-pyrazol-5-yl)-3-(4-(1-methyl-2-oxo-2,3-dihydro-1H-imidazo[4,5-b]pyridin-7-yloxy)naphthalen-1-yl)urea] | 0.019 | – | –
3 | Cc1ccc(-n2nc(C(C)(C)C)cc2NC(=O)Nc2ccc(Oc3ccnc4[nH]c(=O)n(C)c34)c3ccccc23)cc1 [BB-02, 1-(1-N-p-tolyl-3-tert-butyl-pyrazol-5-yl)-3-(4-(2-oxo-2,3-dihydro-1-N-methyl-1H-imidazo[4,5-b]pyridin-7-yl-oxy)naphthalen-1-yl)urea] | 0.026 | about 1.5 | –
4 | CC(C)(C)c1cc(NC(=O)Nc2ccc(Oc3ccnc4[nH]c(=O)[nH]c34)cc2)n(-c2ccccc2)n1 [XX-01, 1-(5-Tert-butyl-2-phenyl-2H-pyrazol-3-yl)-3-[4-(2-oxo-2,3-dihydro-1H-imidazo[4,5-b]pyridin-7-yloxy)-phenyl]-urea] | 0.62 | – | –
5 | Cc1ccc(-n2nc(C(C)(C)C)cc2NC(=O)Nc2ccc(Oc3ccnc4[nH]c(=O)n(C)c34)cc2)cc1 [XX-02, 1-(1-N-p-tolyl-3-tert-butyl-pyrazol-5-yl)-3-(4-(2-oxo-2,3-dihydro-1-N-methyl-1H-imidazo[4,5-b]pyridin-7-yl-oxy)phenyl)urea] | 0.09 | – | at least to some degree effective
6 | Cn1c(=O)n(C)c2c(Oc3ccc(NC(=O)Nc4cc(C(C)(C)C)nn4-c4ccccc4)c(F)c3)ccnc21 [XX-03, 1-(3-Tert-butyl-1-phenyl-1H-pyrazol-5-yl)-3-(4-(1,3-dimethyl-2-oxo-2,3-dihydro-1H-imidazo[4,5-b]pyridin-7-yloxy)-2-fluorophenyl)urea] | 0.12 | – | –
7 | CC(C)(C)c1cc(NC(=O)Nc2ccc(Oc3ccnc4[nH]c(=O)[nH]c34)cc2)n(-c2ccc(F)cc2)n1 [XX-04, 1-[5-tert-Butyl-2-(4-fluoro-phenyl)-2H-pyrazol-3-yl]-3-[4-(2-oxo-2,3-dihydro-1H-imidazo[4,5-b]pyridin-7-yloxy)-phenyl]urea] | 0.2 | – | –
